Assay results taken from BindingDB's records for doi:10.7270/Q25H7DRT (Nmmlsc, 2010).

Molecular target: T1, Citrate synthase, peroxisomal [1-24] (Saccharomyces cerevisiae, UniProt P08679)
T1 construct: 1-24
Assay: yeast TOR pathway CIT2-GFP reporter potency – flow cytometry, MLPCN hits, dose response (AID 2744)

T1 sequence (P08679 1-24): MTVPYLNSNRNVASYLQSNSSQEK

EC50 | SMILES
> 33 µM | O=C(Nc1ccccc1)ON=C1CCCC1 [cyclopentanone O-(anilinocarbonyl)oxime]
> 33 µM | ClC(Cl)(c1nnnn1-c1ccccc1)c1nnnn1-c1ccccc1 [SMR000173835]
